Source: patent US12268690B2, “Treatments for mutations in acute myeloid leukemia” (OREGON HEALTH & SCIENCE UNIVERSITY, priority 2018, dated 2025)

Test system: freshly isolated mononuclear cells from AML samples
Assay: Ex vivo functional drug screen (MTS viability, AUC) on primary AML samples, compared by mutation or clinical group
Format: cell-based, human
Settings: for correlation of mutation with drug sensitivity: mutation of RUNX1
Excerpt: This panel contained graded concentrations of a drugs with activity against two-thirds of the tyrosine kinome as well as other non-tyrosine kinase pathways, including MAPKs, PI3K/AKT/mTOR, AMPK, ATM, Aurora kinases, CAMKs, CDKs, GSK3a/b, IκK, PKA, PKC, PLK1, and RAF. In addition, the library contained small molecule inhibitors with activity against the BCL2 family, BRD4, Hedgehog, HSP90, NOTCH/gamma-secretase, proteasome, survivin, STAT3, and WNT/beta-catenin. Drug sensitivity patterns were analyzed with respect to clinical and genetic features of tumors. We compared the average area-under-the curve (AUC) values for each drug between the de novo and transformed samples via a series of single factor ANOVAs. […] In addition, we analyzed the concordance of drug sensitivity patterns with respect to predicted target gene, gene family, or pathway for each drug. […] To create a global view of overall sensitivity or resistance of each case, we generated a heatmap of binary sensitive/resistant calls for each sample to each drug.
Correlation of drug sensitivity with mutational events was performed by assessing the range of sensitivity of cases with mutation of an individual gene (as well as co-occurring mutational events) versus cases with wild type sequence for that same gene. […] The difference in average drug sensitivity of mutant versus wild type cases for each drug/mutation pair was plotted on the horizontal axis of a volcano plot with a test for statistical significance of the comparison plotted on the vertical axis (corrected for multiple comparison false discovery rate^42; FIG. 4). […] To aid in discovery of potential mutational biomarkers of drug sensitivity, we plotted volcano plots that were specific to each individual drug (versus all possible mutational events) and for each individual gene (versus all possible drugs tested).
Ex vivo drug screens were performed on freshly isolated mononuclear cells from AML samples as previously described^41.
Ex vivo functional drug screens were performed on freshly isolated mononuclear cells from AML samples. […] Drug plates were created using inhibitors purchased from LC Laboratories and Selleck Chemicals and master stocks were reconstituted in DMSO and stored at −80° C. […] DMSO control wells and positive control wells containing a drug combination of Flavopiridol, Staurosporine and Velcade were placed on each plate, with the final concentration of DMSO ≤0.1% in all wells. Daughter plates were created using a V&P Scientific 384-well pin tool head operated by the Caliper Sciclone ALH 3000 and equipped with 0.457 mm diameter, 30 nanoliter, slotted stainless steel pins (cat num: FP1NS30). Daughter and destination plates were sealed with pealable thermal seals using a PlateLoc thermal sealer. Destination plates were stored at −20° C. for no more than three months and thawed immediately before use. Primary mononuclear cells were plated across single-agent inhibitor panels within 24 h of collection. […] After 3 d of culture at 37° C. in 5% CO2, MTS reagent (CellTiter96 AQueous One; Promega) was added, optical density was measured at 490 nm, and raw absorbance values were adjusted to a reference blank value and then used to determine cell viability (normalized to untreated control wells).
A given sample was run on one or more panels and within each panel, the majority of drugs were run without within-panel replicates. […] An additional set of ‘curve-free’ AUCs was computed for sample-inhibitor pairs run on multiple panels.
Based on the methodology used in our prior drug combination study^36, a probit regression was fit to all possible run groups using the model: (normalized_viability/100)˜1+log 10(concentration) Where for all groups there were N=7 dose-response measurements. The summary measures of curve fit were inspected and cutoffs were devised removing all runs with an AIC >12 and deviance >2.

Compound: CN(C)CC[C@H](CSc1ccccc1)Nc1ccc(S(=O)(=O)NC(=O)c2ccc(N3CCN(Cc4ccccc4-c4ccc(Cl)cc4)CC3)cc2)cc1[N+](=O)[O-] [ABT-737]
- drug sensitivity mutant vs wild type (average difference in AUC; top left quadrant of volcano plot) (PML.RARA): ABT-737

Compound: Cc1cc(Nc2nc(N[C@@H](C)c3ncc(F)cn3)ncc2Cl)n[nH]1 [AZD1480]
- drug sensitivity mutant vs wild type (average difference in AUC; top left quadrant of volcano plot) (NPM1:SRSF2:IDH2): AZD1480

Compound: Cn1c(=O)n(-c2ccc(C(C)(C)C#N)cc2)c2c3cc(-c4cnc5ccccc5c4)ccc3ncc21 [BEZ2345]
- drug sensitivity mutant vs wild type (average difference in AUC; top left quadrant of volcano plot) (RUNX1): BEZ2345
- correlation of mutation with drug sensitivity: correlated with sensitivity

Compound: Cc1ccc2nc(NCCN)c3ncc(C)n3c2c1 [BMS-345541, N′-(1,8-dimethyl-4-imidazo[1,2-a]quinoxalinyl)ethane-1,2-diamine]
- drug sensitivity mutant vs wild type (average difference in AUC; top left quadrant of volcano plot) (PDS5B): BMS-345541

Compound: CC(C)(C)c1ccc(S(=O)(=O)/C=C/C#N)cc1 [Bay 11-7085]
- drug sensitivity mutant vs wild type (average difference in AUC; top left quadrant of volcano plot) (SMC1A): Bay 11-

Compound: O=C(NOCC1CC1)c1ccc(F)c(F)c1Nc1ccc(I)cc1Cl [CI-1040]
- drug sensitivity mutant vs wild type (average difference in AUC; top left quadrant of volcano plot) (DNMT3A:NRAS): CI-1040 (PD184352)
- drug sensitivity mutant vs wild type (average difference in AUC; top left quadrant of volcano plot) (NPM1:DNMT3A:NRAS): CI-1040
- drug sensitivity mutant vs wild type (average difference in AUC; top left quadrant of volcano plot) (NPM1:NRAS): CI-1040 (PD184352)
- drug sensitivity mutant vs wild type (average difference in AUC; top left quadrant of volcano plot) (NRAS): CI-1040

Compound: COc1cc2c(Oc3ccc4[nH]c(C)cc4c3F)ncnc2cc1OCCCN1CCCC1 [Cediranib]
- drug sensitivity mutant vs wild type (average difference in AUC; top left quadrant of volcano plot) (FLT3_ITD:RUNX1): cediranib
- drug sensitivity mutant vs wild type (average difference in AUC; top left quadrant of volcano plot) (RUNX1): Cediranib
- drug sensitivity mutant vs wild type (average difference in AUC; top left quadrant of volcano plot) (U2AF1): Cediranib (AZD2171)
- correlation of mutation with drug sensitivity: correlated with sensitivity

Compound: CC1(COc2ccc3c(c2)ncn3-c2ccc3cccc(N4CCC(N)CC4)c3n2)COC1 [Crenolanib]
- drug sensitivity mutant vs wild type (average difference in AUC; top left quadrant of volcano plot) (CBFB.MYH11): Crenolanib
- drug sensitivity mutant vs wild type (average difference in AUC; top left quadrant of volcano plot) (DNMT3A:FLT3): Crenolanib
- drug sensitivity mutant vs wild type (average difference in AUC; top left quadrant of volcano plot) (NPM1): crenolanib
- drug sensitivity mutant vs wild type (average difference in AUC; top left quadrant of volcano plot) (NPM1:DNMT3A): Crenolanib

Compound: C[C@@H](Oc1cc(-c2cnn(C3CCNCC3)c2)cnc1N)c1c(Cl)ccc(F)c1Cl [Crizotinib]
- drug sensitivity mutant vs wild type (average difference in AUC; top left quadrant of volcano plot) (BCOR): Crizotinib
- drug sensitivity of mutant cases (BCOR mutation alone): did show sensitivity
- drug sensitivity mutant vs wild type (average difference in AUC; top left quadrant of volcano plot) (FLT3_ITD): crizotinib
- drug sensitivity mutant vs wild type (average difference in AUC; top left quadrant of volcano plot) (FLT3_ITD:SRSF2): crizotinib
- drug sensitivity mutant vs wild type (average difference in AUC; top left quadrant of volcano plot) (IDH2): Crizotinib
- drug sensitivity mutant vs wild type (average difference in AUC; top left quadrant of volcano plot) (NPM1:CEBPA): Crizotinib
- drug sensitivity mutant vs wild type (average difference in AUC; top left quadrant of volcano plot) (NPM1:FLT3_ITD): crizotinib
- drug sensitivity mutant vs wild type (average difference in AUC; top left quadrant of volcano plot) (SMC1A): crizotinib
- drug sensitivity mutant vs wild type (average difference in AUC; top left quadrant of volcano plot) (SRSF2:IDH2): Crizotinib

Compound: C[C@H](NC(=O)Cc1cc(F)cc(F)c1)C(=O)N[C@@H]1C(=O)N(C)c2ccccc2-c2ccccc21 [DBZ, N-[(1S)-2-[[(7S)-6,7-Dihydro-5-methyl-6-oxo-5H-dibenz[b,d]azepin-7-yl]amino]-1-methyl-2-oxoethyl]-3,5-difluorobenzeneacetamide]
- drug sensitivity mutant vs wild type (average difference in AUC; top left quadrant of volcano plot) (FLT3_ITD:IDH1): DBZ
- drug sensitivity mutant vs wild type (average difference in AUC; top left quadrant of volcano plot) (IDH2): DBZ
- drug sensitivity mutant vs wild type (average difference in AUC; top left quadrant of volcano plot) (NPM1): DBZ
- drug sensitivity mutant vs wild type (average difference in AUC; top left quadrant of volcano plot) (NPM1:IDH2): DBZ
- drug sensitivity mutant vs wild type (average difference in AUC; top left quadrant of volcano plot) (NPM1:SRSF2): DBZ
- drug sensitivity mutant vs wild type (average difference in AUC; top left quadrant of volcano plot) (NPM1:SRSF2:IDH2): DBZ

Compound: c1cn2cc(-c3ccc4cn[nH]c4c3)nc(Nc3ccc(N4CCOCC4)cc3)c2n1 [Entospletinib, 6-(1H-indazol-6-yl)-N-(4-morpholin-4-ylphenyl)imidazo[1,2-a]pyrazin-8-amine]
- drug sensitivity mutant vs wild type (average difference in AUC; top left quadrant of volcano plot) (DNMT3A): Entospletinib
- drug sensitivity mutant vs wild type (average difference in AUC; top left quadrant of volcano plot) (DNMT3A:IDH2): Entospletinib (GS-9973)
- drug sensitivity mutant vs wild type (average difference in AUC; top left quadrant of volcano plot) (IDH2): Entospletinib
- drug sensitivity mutant vs wild type (average difference in AUC; top left quadrant of volcano plot) (NPM1): Entospletinib
- drug sensitivity mutant vs wild type (average difference in AUC; top left quadrant of volcano plot) (NPM1:DNMT3A): Entospletinib
- drug sensitivity mutant vs wild type (average difference in AUC; top left quadrant of volcano plot) (NPM1:IDH1): entospletinib
- drug sensitivity mutant vs wild type (average difference in AUC; top left quadrant of volcano plot) (NPM1:IDH2): entospetinib
- drug sensitivity mutant vs wild type (average difference in AUC; top left quadrant of volcano plot) (NPM1:SRSF2): entospetinib
- drug sensitivity mutant vs wild type (average difference in AUC; top left quadrant of volcano plot) (NPM1:TET2: DNMT3A): Entospetinib
- pattern of drug sensitivity (cases with FLT3-ITD and NPM1): similarly significant pattern of sensitivity

Compound: CN1CC[C@H](c2c(O)cc(O)c3c(=O)cc(-c4ccccc4Cl)oc23)[C@H](O)C1 [Flavopiridol]
- drug sensitivity mutant vs wild type (average difference in AUC; top left quadrant of volcano plot) (NRAS): (GSK1120212), or Flavopiridol

Compound: COc1cc2c(Oc3ccc(NC(=O)C4(C(=O)Nc5ccc(F)cc5)CC4)cc3F)ccnc2cc1OCCCN1CCOCC1 [Foretinib]
- drug sensitivity mutant vs wild type (average difference in AUC; top left quadrant of volcano plot) (FLT3): Foretinib (XL880)
- drug sensitivity mutant vs wild type (average difference in AUC; top left quadrant of volcano plot) (FLT3_ITD:TET2:DNMT3A): Foretinib
- drug sensitivity mutant vs wild type (average difference in AUC; top left quadrant of volcano plot) (FLT3_ITD:WT1): foretinib
- drug sensitivity mutant vs wild type (average difference in AUC; top left quadrant of volcano plot) (IDH2): Foretinib
- drug sensitivity mutant vs wild type (average difference in AUC; top left quadrant of volcano plot) (NPM1): Foretinib
- drug sensitivity mutant vs wild type (average difference in AUC; top left quadrant of volcano plot) (NPM1:DNMT3A): foretinib
- drug sensitivity mutant vs wild type (average difference in AUC; top left quadrant of volcano plot) (NPM1:FLT3): Foretinib
- drug sensitivity mutant vs wild type (average difference in AUC; top left quadrant of volcano plot) (NPM1:FLT3_ITD): foretinib
- drug sensitivity mutant vs wild type (average difference in AUC; top left quadrant of volcano plot) (NPM1:FLT3_ITD:DNMT3A): foretinib
- drug sensitivity mutant vs wild type (average difference in AUC; top left quadrant of volcano plot) (NPM1:SRSF2): Foretinib
- drug sensitivity mutant vs wild type (average difference in AUC; top left quadrant of volcano plot) (SMC1A): foretinib

Compound: CCn1c(-c2nonc2N)nc2c(C#CC(C)(C)O)ncc(OC[C@H]3CCCNC3)c21 [GSK690693]
- drug sensitivity mutant vs wild type (average difference in AUC; top left quadrant of volcano plot) (MLLT3.KMT2A): GSK690693

Compound: CNC(=O)c1c(F)cccc1Nc1nc(Nc2cc3c(cc2OC)CCN3C(=O)CN(C)C)nc2[nH]ccc12 [GSK-1838705A]
- drug sensitivity mutant vs wild type (average difference in AUC; top left quadrant of volcano plot) (IDH2): GSK-1838705A
- drug sensitivity mutant vs wild type (average difference in AUC; top left quadrant of volcano plot) (NPM1:IDH2): GSK-1838705A
- drug sensitivity mutant vs wild type (average difference in AUC; top left quadrant of volcano plot) (NPM1:SRSF2): GSK-183705A
- drug sensitivity mutant vs wild type (average difference in AUC; top left quadrant of volcano plot) (SMC1A): GSK-1838705A
- drug sensitivity mutant vs wild type (average difference in AUC; top left quadrant of volcano plot) (SRSF2:IDH2): GSK-1838705A

Compound: COc1ccc(COc2ccc(Cc3cnc(N)nc3N)cc2OC)cc1 [GW-2580]
- drug sensitivity mutant vs wild type (average difference in AUC; top left quadrant of volcano plot) (IDH2): GW-2580
- drug sensitivity mutant vs wild type (average difference in AUC; top left quadrant of volcano plot) (NPM1:IDH2): GW-2580
- drug sensitivity mutant vs wild type (average difference in AUC; top left quadrant of volcano plot) (NPM1:SRSF2): gw-2580

Compound: COc1cc2ncnc(Nc3ccc(F)c(Cl)c3)c2cc1OCCCN1CCOCC1 [Gefitinib]
- drug sensitivity mutant vs wild type (average difference in AUC; top left quadrant of volcano plot) (FLT3_ITD): gefitinib
- drug sensitivity mutant vs wild type (average difference in AUC; top left quadrant of volcano plot) (FLT3_ITD:SRSF2): Gefitinib
- drug sensitivity mutant vs wild type (average difference in AUC; top left quadrant of volcano plot) (FLT3_ITD_IHD2): gefitinib
- drug sensitivity mutant vs wild type (average difference in AUC; top left quadrant of volcano plot) (NPM1): Gefitinib
- drug sensitivity mutant vs wild type (average difference in AUC; top left quadrant of volcano plot) (NPM1:DNMT3A): Gefitinib
- drug sensitivity mutant vs wild type (average difference in AUC; top left quadrant of volcano plot) (NPM1:FLT3_ITD): gefitinib
- drug sensitivity mutant vs wild type (average difference in AUC; top left quadrant of volcano plot) (NPM1:FLT3_ITD:DNMT3A): gefitinib
- drug sensitivity mutant vs wild type (average difference in AUC; top left quadrant of volcano plot) (NPM1:IDH2): gefitinib
- drug sensitivity mutant vs wild type (average difference in AUC; top left quadrant of volcano plot) (NPM1:SRSF2): gefitinib
